Three compounds from US10137102B2, “Oligomeric forms of 3-hydroxybutyrate” (Oulun Yliopisto, priority 2014, dated 2018) can be followed below.

The structures appear in SMILES notation.

The test system of assay [1] is yeast GSH pathway deletion mutants gsh1Δ and gsh2Δ. The class given is cell-based, S. cerevisiae. The settings on record: FIG. 2, 2.5 mM H2O2, 65 μM FeCl3.
Procedure: Yeast strains (gsh1Δ (YJL101c) and gsh2Δ (YOL049w); EUROSCARF) were streaked from glycerol stocks onto YEPD agar plates (1% w/v Bacto yeast extract; 2% w/v Bacto peptone; 2% w/v D-glucose; 2% w/v agar) and incubated at +30° C. for 48 h. Yeast pre-cultures were inoculated from the plates and grown in liquid SG minimal medium (0.67% w/v yeast nitrogen base without amino acids; 2% w/v glucose with appropriate supplements: uracil, 0.02 mg/ml; amino acids, 0.03 mg/ml) at +30° C. in orbital shaker with 180 rpm to stationary phase (1.0-1.2 OD600). Growth was measured spectrophotometrically at 600 nm (OD600) and the cell densities were adjusted to 1.0 OD600 before inoculation of the final density of 0.25 OD600 into each assay reaction.
To validate the alleviation of oxidative stress in living cells and to identify the cellular target proteins for hydroxyl radical scavenging in eukaryotic cells, a yeast deletion mutant bioassay was developed on the basis of HOSC assay (Moore et al. 2006). Hydroxyl radicals were generated under physiological pH (7.4) in Fenton-like Fe^3+/H2O2 reaction. The original assay settings were adjusted for yeast cells in phosphate buffered SG medium, and the pH and O2 levels were monitored by SENBIT® system (Vasala et al. 2006). The concentration of hydrogen peroxide was optimized to a sub-lethal level (2.5 mM) and the reaction was supplemented with appropriate amount of FeCl3 (0.0646 mM) to produce a constant flux of .OH radicals.
The total reaction volume was down-scaled to 1 ml, which made the assay suitable for the natural products low in quantity. […]
All treatments were pipetted in triplicate, and the experiment was repeated three times. Cell growth was monitored at +30° C. for 72 hours and Petri plates were scanned digitally to high-quality computer images after 48 and 72 hours. Hydroxyl radical-induced stress and the alleviation of stress by antioxidant compounds in various deletion mutant strains of S. cerevisiae were evaluated visually.
Assay [2] is described as follows: HOSC assay (fluorometric .OH scavenging capacity assay). The class given is biochemical. The settings on record: for hydroxyl radical scavenging activity (in words) / .OH scavengers, times better than ascorbic acid / .OH scavengers, times better than glutathione: FIG. 1; for hydroxyl radical scavenging activity (in words): compared with L-ascorbic acid, L-glutathione and 3-hydroxybutyric acid; for .OH scavengers, times better than ascorbic acid / .OH scavengers, times better than glutathione: HOSC assay under Fenton's reaction, against Trolox; for .OH scavengers, times better than ascorbic acid: comparator ascorbic acid; for .OH scavengers, times better than glutathione: comparator glutathione; for scavenging capacity, times better compared to 3-HB monomer, 3-hydroxybutyric acid (3-HBA): HOSC assay, comparator commercial 3-HBA. How it is done:
HOSC Assay (Fluorometric .OH Scavenging Capacity Assay)
Assay reactions were prepared according to Moore et al. (2006) and analyzed in black 96-well polystyrene plates (FluoroNunc, Thermo Scientific) with a Victor3 multilabel plate reader (PerkinElmer, Turku, Finland). Each reaction mixture contained 170 μl of 9.28×10^−8 M fluorescein (FL) prepared in 75 mM sodium phosphate buffer (pH 7.4), 30 μl of blank or sample or standard, 40 μl of 0.1990 M H2O2, and 60 μl of 3.43 mM FeCl3, pipetted to the 96-well plate in same order. Trolox standards (20, 40, 60, 80, and 100 μM), control solutions of glutathione, vitamin C, 3-HB monomer (3-hydroxybutyric acid, 3-HBA) (Sigma-Aldrich, St. Louis, Mo.), and the 3-HB oligomer samples were freshly prepared in 50% acetone for each assay. Each reaction was pipetted onto the 96-well plate in triplicate. Fluorescence was measured at the excitation wavelength of 485 nm and the emission wavelength of 535 nm. Read time for each well was 0.1 s, and each plate was read once per minute for 3 h. Based on the area under the curve (AUC) of the Trolox concentrations and the net area under the fluorescein decay curve (Ou et al. 2001), the relative HOSC values were calculated by using the regression equation for the pure compounds. Values were expressed as Trolox equivalents (TE), where one micromole of TE corresponds to one micromole of sample. The experiment was repeated three times.
Calculation of Area Under Curve (AUC) Values: AUC=0.5+f1/f0+f2/f0+f3/f0+ . . . +fi−1/f0+0.5(fi/f0) f0=the initial fluorescence reading at 0 min fi=the final fluorescence reading Calculation of Relative HOSC Values for Pure Compounds: [(AUCsample−AUCblank)/(AUCTrolox−AUCblank)]×(Molarity of Trolox/Molarity of sample)] Iron-Catalyzed Hydroxyl Radical Formation by Haber-Weiss Driven Fenton Reaction (Liochev 1999, Kehrer 2000): Fe^3++O.^2−→Fe^2++O2 (1) Fe^2++H2O2→Fe^3++OH^−+OH.(Fenton reaction) (2)
The Net Reaction: O.^2−+H2O2→O2+OH^−+OH. (3)
Fluorometric .OH scavenging capacity (HOSC) assays for 3-HB mono-, di- and trimers (molecules of general formula 1, wherein n is 1 and 2, respectively), along with glutathione and ascorbic acid was performed. […] Oligomers of 3-HB having a chain length longer than four units had low antioxidant activity.

The test system of assay [3] is Shoot tips of Scots pine. The assay is described as follows: Viability assay on pine shoot tips. The settings on record: FIG. 3; medium including molecules (1) and (2); after five weeks; control shoot tip dead. The class given is cell-based, Pinus sylvestris L. On the procedure: Viability Assay on Pine Shoot Tips Shoot tips (n=9-13) of Scots pine (Pinus sylvestris L.) were collected from young (>10 years) trees and surface-sterilized in 70% ethanol for 1 min and in 6% Ca(ClO)2 for 20 min, and rinsed thoroughly three times with sterile water. After rinsing in sterile water, the shoot tips (buds) were aseptically peeled in a laminar flow hood and placed on the media. The pine shoot tips were grown in 8/16 h photoperiod at +25±1° C. in the presence and absence of molecules of general formula I, wherein n is from 2 to 10. The viability of the pine tissue was assessed for up to 6 weeks visually (FIG. 3) and by 1% (w/v) acetocarmine staining. The viability on each fraction was recorded as percentage of live buds. The experiment was twice with each oligomer (mono- to decamer) on each Petri plate containing 18-31 pine shoot tips.

For the compound `COC(=O)CC(C)OC(=O)CC(C)O` (centres unmarked) [Compound 1, 3-hydroxybutyrate methyl ester dimer], the “reversal of hypersensitivity of yeast mutants to hydroxyl radical stress (in words)” value (shortened to “reversal”) in assay [1] was “reversal of hypersensitivity”. For the same compound, in assay [2], the “hydroxyl radical scavenging activity (in words)” value was “significantly better”; the “.OH scavengers, times better than ascorbic acid” value is recorded as 10 times; the “.OH scavengers, times better than glutathione” value is 3 times; the “scavenging capacity, times better compared to 3-HB monomer, 3-hydroxybutyric acid (3-HBA)” value came out at 10 times. For the same compound, the “antioxidant capacity against hydroxyl radicals (in words)” value in assay [2] (compared with 3-hydroxybutyric acid or ascorbic acid) is recorded as “more than tenfold higher”. In assay [3], the “state of Scots pine shoot tip (in words)” value was “alive”.

As to `COC(=O)CC(C)OC(=O)CC(C)OC(=O)CC(C)O` (centres unmarked) [Compound 2], the “reversal” value in assay [1] was “reversal of hypersensitivity”. For the same compound, in assay [2], the “hydroxyl radical scavenging activity (in words)” value is “significantly better”; the “.OH scavengers, times better than ascorbic acid” value is 10 times; the “.OH scavengers, times better than glutathione” value is 3 times; the “scavenging capacity, times better compared to 3-HB monomer, 3-hydroxybutyric acid (3-HBA)” value is 10 times. Moreover, the “state of Scots pine shoot tip (in words)” value in assay [3] is listed as “alive”.

Regarding `N[C@@H](CCC(=O)N[C@@H](CS)C(=O)NCC(=O)O)C(=O)O` [glutathione, reference compound], the “reversal” value in assay [1] was “reversal of hypersensitivity”.
